In brackets after ≈: the same amount, converted by molar mass.
Legend:
Assay type in all cases: functional
Staphylococcus aureus = assay: Antibacterial activity against Staphylococcus aureus by broth dilution method
Pseudomonas aeruginosa = assay: Antibacterial activity against Pseudomonas aeruginosa by broth dilution method
Aspergillus clavatus = assay: Antifungal activity against Aspergillus clavatus by broth dilution method
Escherichia coli = assay: Antibacterial activity against Escherichia coli by broth dilution method
Aspergillus niger = assay: Antifungal activity against Aspergillus niger by broth dilution method
Streptococcus pyogenes = assay: Antibacterial activity against Streptococcus pyogenes by broth dilution method
Candida albicans = assay: Antifungal activity against Candida albicans by broth dilution method

Molecule | MIC (Staphylococcus aureus) | MIC (Pseudomonas aeruginosa) | MIC (Aspergillus clavatus) | MIC (Escherichia coli) | MIC (Aspergillus niger) | MIC (Streptococcus pyogenes) | MIC (Candida albicans)
O=C(N/N=C\c1ccccc1[N+](=O)[O-])c1cn(C2CC2)c2cc(Cl)c(F)cc2c1=O | 100 µg/mL (≈ 233 µM) | 200 µg/mL (≈ 466 µM) | > 1000 µg/mL | 500 µg/mL (≈ 1170 µM) | 1000 µg/mL (≈ 2330 µM) | 200 µg/mL (≈ 466 µM) | 500 µg/mL (≈ 1170 µM)
COC1=CC(=O)C[C@@H](C)[C@]12Oc1c(Cl)c(OC)cc(OC)c1C2=O [GRISEOFULVIN] |  |  | 100 µg/mL (≈ 283 µM) |  | 100 µg/mL (≈ 283 µM) |  | 500 µg/mL (≈ 1420 µM)
COc1ccc(N2CCN(c3cc4c(cc3F)c(=O)c(C(=O)N/N=C\c3ccccc3Cl)cn4C3CC3)CC2)cc1 | 500 µg/mL (≈ 871 µM) | 100 µg/mL (≈ 174 µM) | > 1000 µg/mL | 100 µg/mL (≈ 174 µM) | > 1000 µg/mL | 100 µg/mL (≈ 174 µM) | 500 µg/mL (≈ 871 µM)
O=C(N/N=C\c1ccccc1Cl)c1cn(C2CC2)c2cc(Cl)c(F)cc2c1=O | 200 µg/mL (≈ 478 µM) | 100 µg/mL (≈ 239 µM) | 500 µg/mL (≈ 1200 µM) | 50 µg/mL (≈ 120 µM) | 500 µg/mL (≈ 1200 µM) | 100 µg/mL (≈ 239 µM) | 1000 µg/mL (≈ 2390 µM)
COc1ccc(N2CCN(c3cc4c(cc3F)c(=O)c(C(=O)NN3C(=O)CSC3c3ccccc3)cn4C3CC3)CC2)cc1 (stereo not drawn) | 500 µg/mL (≈ 815 µM) | 200 µg/mL (≈ 326 µM) | 500 µg/mL (≈ 815 µM) | 1000 µg/mL (≈ 1630 µM) | 500 µg/mL (≈ 815 µM) | 1000 µg/mL (≈ 1630 µM) | 1000 µg/mL (≈ 1630 µM)
CC1(C)S[C@@H]2[C@H](NC(=O)[C@H](N)c3ccccc3)C(=O)N2[C@H]1C(=O)O [AMPICILLIN] | 250 µg/mL (≈ 715 µM) | 100 µg/mL (≈ 286 µM) |  | 100 µg/mL (≈ 286 µM) |  | 100 µg/mL (≈ 286 µM) | 
O=C(N[C@H](CO)[C@H](O)c1ccc([N+](=O)[O-])cc1)C(Cl)Cl [CHLORAMPHENICOL] | 50 µg/mL (≈ 155 µM) | 50 µg/mL (≈ 155 µM) |  | 50 µg/mL (≈ 155 µM) |  | 50 µg/mL (≈ 155 µM) | 
COc1ccc(N2CCN(c3cc4c(cc3F)c(=O)c(C(=O)NN3C(=O)CSC3c3ccc(F)cc3)cn4C3CC3)CC2)cc1 (stereo not drawn) | 1000 µg/mL (≈ 1580 µM) | 500 µg/mL (≈ 792 µM) | 1000 µg/mL (≈ 1580 µM) | 1000 µg/mL (≈ 1580 µM) | 1000 µg/mL (≈ 1580 µM) | 1000 µg/mL (≈ 1580 µM) | 1000 µg/mL (≈ 1580 µM)
GENTAMICIN | 0.25 µg/mL | 1 µg/mL |  | 0.05 µg/mL |  | 0.5 µg/mL | 
COc1ccc(N2CCN(c3cc4c(cc3F)c(=O)c(C(=O)N/N=C\c3ccccc3O)cn4C3CC3)CC2)cc1 | 500 µg/mL (≈ 900 µM) | 500 µg/mL (≈ 900 µM) | > 1000 µg/mL | 500 µg/mL (≈ 900 µM) | 500 µg/mL (≈ 900 µM) | 500 µg/mL (≈ 900 µM) | 500 µg/mL (≈ 900 µM)
NYSTATIN |  |  | 100 µg/mL |  | 100 µg/mL |  | 100 µg/mL
O=C(N/N=C\c1ccc(O)cc1)c1cn(C2CC2)c2cc(Cl)c(F)cc2c1=O | 500 µg/mL (≈ 1250 µM) | 500 µg/mL (≈ 1250 µM) | 500 µg/mL (≈ 1250 µM) | 500 µg/mL (≈ 1250 µM) | 500 µg/mL (≈ 1250 µM) | 500 µg/mL (≈ 1250 µM) | 500 µg/mL (≈ 1250 µM)
COc1ccc(/C=N\NC(=O)c2cn(C3CC3)c3cc(Cl)c(F)cc3c2=O)cc1 | 500 µg/mL (≈ 1210 µM) | 500 µg/mL (≈ 1210 µM) | > 1000 µg/mL | 200 µg/mL (≈ 483 µM) | > 1000 µg/mL | 1000 µg/mL (≈ 2420 µM) | 500 µg/mL (≈ 1210 µM)
COc1ccc(N2CCN(c3cc4c(cc3F)c(=O)c(C(=O)N/N=C\c3ccc(O)cc3)cn4C3CC3)CC2)cc1 | 500 µg/mL (≈ 900 µM) | 200 µg/mL (≈ 360 µM) | 1000 µg/mL (≈ 1800 µM) | 500 µg/mL (≈ 900 µM) | 1000 µg/mL (≈ 1800 µM) | 1000 µg/mL (≈ 1800 µM) | 1000 µg/mL (≈ 1800 µM)
COc1ccc(N2CCN(c3cc4c(cc3F)c(=O)c(C(=O)NN3C(=O)CSC3c3ccc(Cl)cc3)cn4C3CC3)CC2)cc1 (stereo not drawn) | 100 µg/mL (≈ 154 µM) | 500 µg/mL (≈ 771 µM) | > 1000 µg/mL | 500 µg/mL (≈ 771 µM) | 500 µg/mL (≈ 771 µM) | 1000 µg/mL (≈ 1540 µM) | 1000 µg/mL (≈ 1540 µM)
COc1ccc(N2CCN(c3cc4c(cc3F)c(=O)c(C(=O)N/N=C\c3ccc(Cl)cc3)cn4C3CC3)CC2)cc1 | 1000 µg/mL (≈ 1740 µM) | 1000 µg/mL (≈ 1740 µM) | 1000 µg/mL (≈ 1740 µM) | 1000 µg/mL (≈ 1740 µM) | 1000 µg/mL (≈ 1740 µM) | 500 µg/mL (≈ 871 µM) | 1000 µg/mL (≈ 1740 µM)
COc1ccc(N2CCN(c3cc4c(cc3F)c(=O)c(C(=O)N/N=C\c3ccccc3)cn4C3CC3)CC2)cc1 | 1000 µg/mL (≈ 1850 µM) | 500 µg/mL (≈ 927 µM) | 500 µg/mL (≈ 927 µM) | 500 µg/mL (≈ 927 µM) | 500 µg/mL (≈ 927 µM) | 500 µg/mL (≈ 927 µM) | 500 µg/mL (≈ 927 µM)
O=C(N/N=C\c1ccccc1O)c1cn(C2CC2)c2cc(Cl)c(F)cc2c1=O | 500 µg/mL (≈ 1250 µM) | 500 µg/mL (≈ 1250 µM) | 500 µg/mL (≈ 1250 µM) | 500 µg/mL (≈ 1250 µM) | 500 µg/mL (≈ 1250 µM) | 1000 µg/mL (≈ 2500 µM) | 500 µg/mL (≈ 1250 µM)
COc1ccc(N2CCN(c3cc4c(cc3F)c(=O)c(C(=O)NN3C(=O)CSC3c3ccc(O)cc3)cn4C3CC3)CC2)cc1 (stereo not drawn) | 500 µg/mL (≈ 794 µM) | 500 µg/mL (≈ 794 µM) | > 1000 µg/mL | 500 µg/mL (≈ 794 µM) | 1000 µg/mL (≈ 1590 µM) | 500 µg/mL (≈ 794 µM) | 1000 µg/mL (≈ 1590 µM)
COc1ccc(N2CCN(c3cc4c(cc3F)c(=O)c(C(=O)N/N=C\c3ccccc3[N+](=O)[O-])cn4C3CC3)CC2)cc1 | 150 µg/mL (≈ 257 µM) | 100 µg/mL (≈ 171 µM) | 1000 µg/mL (≈ 1710 µM) | 50 µg/mL (≈ 85.5 µM) | 1000 µg/mL (≈ 1710 µM) | 150 µg/mL (≈ 257 µM) | 1000 µg/mL (≈ 1710 µM)

Reference: ChEMBL document CHEMBL3046517, “Synthesis and antimicrobial study of fluoroquinolone-based 4-thiazolidinones” (2010)
